Values quoted from earlier work in patent US9833411B2, “Solid oral dosage forms” (Enteris Biopharma, Inc., priority 2015, dated 2017).
Values after ≈ are worked out from the molar mass of the structure shown.

Assays:
[1] = tested on: Methicillin-Resistant Staphylococcus aureus (MRSA), Stenotrophomonas maltophilia, Haemophilus influenzae, and Neisseria gonorrhoeae; conditions: values reported
[2] = known formulations

In the case of CN(C)c1cc(NC(=O)CNC(C)(C)C)c(O)c2c1C[C@H]1C[C@H]3[C@H](N(C)C)C(O)=C(C(N)=O)C(=O)[C@@]3(O)C(O)=C1C2=O [Tigecycline], the aqueous solubility is listed as “approximately 300 mg/mL”, the MIC [1] is listed as 2 µg/mL (≈ 3.41 µM) and the “maximal oral bioavailability % (% F)” value [2] is listed as “less than 5%”.
